Measured values reported in ChEMBL document CHEMBL4811265, “Structural understanding of 5-(4-hydroxy-phenyl)-N-(2-(5-methoxy-1H-indol-3-yl)-ethyl)-3-oxopentanamide as a neuroprotectant for Alzheimer's disease” (Bioorg Med Chem Lett, 2021).

Assay: Neuroprotective activity in human MC65 cells cultured in TC-deficient medium assessed as inhibition of TC-deficiency induced cell death by measuring increase in cell viability measured after 72 hrs by MTT assay
Type: functional, cell-based
Conditions: MC65, 72 h
COc1ccc(CCC2(CC(=O)NCCc3c[nH]c4ccc(OC)cc34)N=N2)cc1 gave an EC50 greater than 3000 nM. COc1ccc2[nH]cc(CCNC(=O)CC(=O)/C=C/c3ccc(F)cc3)c2c1 gave an EC50 of 32.8 nM. O=C(CCc1ccc(O)cc1)CC(=O)NCCc1c[nH]c2ccc(O)cc12 showed an EC50 of 364 nM. With COc1ccc2[nH]cc(CCNC(=O)CC(=O)/C=C/c3ccc4c(c3)OCO4)c2c1 the EC50 was greater than 3000 nM. Compound COc1ccc2[nH]cc(CCNC(=O)CC(=O)/C=C/c3ccoc3)c2c1 has an EC50 of 336 nM. COc1ccc2[nH]cc(CCNC(=O)C3CCCC(Cc4ccc(O)cc4)C3=O)c2c1 (racemic) gave an EC50 greater than 3000 nM. In the case of COc1ccc2[nH]cc(CCNC(=O)CC(=O)/C=C/c3ccco3)c2c1, the EC50 is reported as 228 nM. In the case of O=C(/C=C/c1ccc(O)cc1)CC(=O)NCCc1c[nH]c2ccc(O)cc12, the EC50 is reported as 178 nM. Compound Nc1ccc2[nH]cc(CCNC(=O)CC(=O)CCc3ccc(O)cc3)c2c1 has an EC50 greater than 3000 nM. With COc1ccc2[nH]cc(CCNC(=O)CC(=O)CCc3ccc(F)cc3)c2c1 the EC50 was 33 nM. COc1ccc2[nH]cc(CCNC(=O)CC(=O)CCc3ccc(O)cc3)c2c1 gave an EC50 of 32.6 nM. In the case of COc1ccc2[nH]cc(CCNC(=O)CC(=O)/C=C/c3cccnc3)c2c1, the EC50 is reported as greater than 3000 nM. With COc1ccc2[nH]cc(CCNC(=O)C3CC/C(=C\c4ccc(O)cc4)C3=O)c2c1 (racemic) the EC50 was 127 nM. COc1ccc2[nH]cc(CCNC(=O)C3CCC/C(=C\c4ccc(O)cc4)C3=O)c2c1 (racemic) gave an EC50 of 224 nM. For C#CCOc1ccc2[nH]cc(CCNC(=O)CC3(CCc4ccc(O)cc4)N=N3)c2c1, the EC50 was 26.1 nM. COc1ccc(CCC(=O)CC(=O)NCCc2c[nH]c3ccc(OC)cc23)cc1 gave an EC50 of 490 nM. Work on C#CCOc1ccc2[nH]cc(CCNC(=O)CC(=O)CCc3ccc(O)cc3)c2c1 yielded an EC50 of 32 nM. Compound [N-]=[N+]=Nc1ccc2[nH]cc(CCNC(=O)CC(=O)CCc3ccc(O)cc3)c2c1 has an EC50 of 16.5 nM. COc1ccc2[nH]cc(CCNC(=O)CC(=O)/C=C/c3ccc(N(C)C)cc3)c2c1 gave an EC50 of 976 nM. In the case of COc1ccc2[nH]cc(CCNC(=O)C3CCC(Cc4ccc(O)cc4)C3=O)c2c1 (racemic), the EC50 is reported as greater than 3000 nM. In the case of O=C(CCc1ccc(O)cc1)CC(=O)NCCc1c[nH]c2ccc([N+](=O)[O-])cc12, the EC50 is reported as 500 nM. COc1ccc2[nH]cc(CCNC(=O)CC(=O)/C=C/c3ccc(O)cc3)c2c1 gave an EC50 of 29 nM. Work on O=C(CC(O)CCc1ccc(O)cc1)NCCc1c[nH]c2ccc(O)cc12 (racemic) yielded an EC50 of 9.2 nM. In the case of COc1ccc2[nH]cc(CCNC(=O)CC(=O)/C=C/c3ccncc3)c2c1, the EC50 is reported as greater than 3000 nM. Work on COc1ccc2[nH]cc(CCNC(=O)CC3(CCc4ccc(O)cc4)N=N3)c2c1 yielded an EC50 of 56.2 nM.
